The text below walks through data of patent US10517926B2, “Oligopeptide having proinflammatory cytokine secretion-inhibiting activity” (Osaka University, priority 2015, dated 2019).

Test [1] concerns osteoclast precursor cells. The experiment in a line: Osteoclast differentiation, Osteoclast Culture Kit (TRAP and nuclear staining). The format is cell-based. The settings on record: with M-CSF 50 ng/ml; MHP1 30, 50 or 100 μg/ml or RANKL protein 50 ng/ml; FIG. 13. The method, then: Osteoclast Culture Kit V-2 (OSC33, produced by Cosmo Bio Co., Ltd.) was used. According to the manual of the kit, culture of osteoclast precursor cells was started in the presence of M-CSF (final concentration: 50 ng/ml) in the A and B groups, and in the presence of M-CSF (final concentration: 50 ng/ml) and MHP1 (final concentration: 30, 50, or 100 μg/ml) in the C and D groups. Thereafter, 24 hours to 7 days after the start of culture, the A group was cultured in the presence of M-CSF (final concentration: 50 ng/ml), the B group was cultured in the presence of M-CSF (final concentration: 50 ng/ml) and RANKL protein (final concentration: 50 ng/ml), the C group was cultured in the presence of M-CSF (final concentration: 50 ng/ml) and MHP1 (final concentration: 30, 50, or 100 μg/ml), and the D group was cultured in the presence of M-CSF (final concentration: 50 ng/ml), RANKL protein (final concentration: 50 ng/ml), and MHP1 (final concentration: 30, 50, or 100 μg/ml). After culture, the cells were subjected to TRAP staining and nuclear staining according to a standard method.

Test [2] relates to MG6 cells. The experiment in a line: Proinflammatory cytokine secretion inhibition, LPS-stimulated microglial cells (ELISA). Conditions: for proinflammatory cytokine secretion-inhibiting activity on the MG6 cells: same test as Example 2. The format is cell-based, mouse. How it is done: MG6 cells (mouse-derived microglial cell line) were cultured in a DMEM medium (+4% FBS) containing MHP1 or MHP2 (final concentration: 50 or 100 μg/ml), and LPS (final concentration: 2 ng/ml) for 24 hours by a standard method. After culture, the concentrations of IL-6 and TNFα in the medium were measured by the ELISA method. In the Examples of the present application, the ELISA method was performed using a kit (Quantikine ELISA Mouse TNF-α or Quantikine ELISA Mouse IL-6, produced by R&D Systems). The results are shown in FIG. 1 (IL-6) and FIG. 2 (TNFα).
The proinflammatory cytokine secretion-inhibiting effect was examined in the same as in Example 2, except that the final concentration of MHP1 was set to 100 μg/ml, and that RANKL full-length protein was used at a final concentration of 10 ng/ml or 100 ng/ml as the comparison target.
A general note: An ELISA detects its analyte on a solid surface through an enzyme-linked reagent.

For test [3], the system named is THP1 cells. The experiment in a line: Proinflammatory cytokine secretion inhibition, human macrophage cells. It is filed as cell-based. The settings on record: MHP6 10-100 μg/ml or MHP1 100 μg/ml, LPS 2 ng/ml, 24 hours, FIG. 14. The method, then: THP1 cells (human-derived macrophage cell line) were cultured in a DMEM medium (+4% FBS) containing MHP6 (human-derived; final concentration: 10, 30, 50, or 100 μg/ml) or MHP1 (mouse-derived; final concentration: 100 μg/ml), and LPS (final concentration: 2 ng/ml) for 24 hours by a standard method. After culture, the concentration of IL-6 in the medium was measured by the ELISA method.

The subject of test [4] is LPS-administered mice (Balb/c). The experiment in a line: Septicemia model, LPS intraperitoneal, survival. The format is in vivo, mouse. The settings on record: LPS 10 mg/kg + MHP2 5 mg/kg or 10 mg/kg i.p.; LPS only: 2 of 3 died; FIG. 17. The method, then:
To wild-type mice (Balb/c, 5-week-old female mice), LPS (10 mg/kg) was intraperitoneally administered, or LPS (10 mg/kg) and MHP-2 (5 mg/kg or 10 mg/kg) were intraperitoneally administered. After administration, the survival rate of the mice was measured.

“RANKL: RANKL protein (Recombinant Murin sRANKL Ligand (Cat No. 315-11): produced by Peprotech) (LMVYVVKTSIKIPSSHNLMKGGSTKNWSGN) [reference compound]”: in test [1], the “differentiation of osteoclasts by the substance itself” value is on record as “promoted”.

For “LMVYVVKTSIKIPSSHNLMKGG (listed as Mus musculus) [MHP5]”, in test [2], the “proinflammatory cytokine secretion-inhibiting activity on the MG6 cells” value was “showed proinflammatory cytokine secretion-inhibiting activity”.

Consider “LMVYVVKTSIKIPSSHNLMKGGSTKN (listed as Mus musculus) [MHP13]”, for which the “proinflammatory cytokine secretion-inhibiting activity on the MG6 cells” value in test [2] is given as “showed proinflammatory cytokine secretion-inhibiting activity”.

For the substance “LMVYVVKTSIK (listed as Mus musculus) [MHP17]”, the “proinflammatory cytokine secretion-inhibiting activity on the MG6 cells” value in test [2] is reported as “showed proinflammatory cytokine secretion-inhibiting activity”.

For “HETSGSVPADYLQLMVYVVKTSIKIPSS (listed as Mus musculus) [MHP3]”, in test [2], the “proinflammatory cytokine secretion-inhibiting activity on the MG6 cells” value was “did not show proinflammatory cytokine secretion-inhibiting activity”.

On to “LMVYVTKTSIKIPSSHTLMKGGSTKYWSGN (listed as Homo sapiens) [MHP6]”, for which the “proinflammatory cytokine (IL-6) secretion-inhibiting activity on human-derived macrophage cells” value in test [3] was “exhibited proinflammatory cytokine secretion-inhibiting activity”.

For the substance “LMVYVVKTSIKIPSS (listed as Mus musculus) [MHP4]”, the “proinflammatory cytokine secretion-inhibiting activity on the MG6 cells” value in test [2] was “showed proinflammatory cytokine secretion-inhibiting activity”.

With “LMVYVVKTSIKIPSSHNLMKGGS (listed as Mus musculus) [MHP12]”, the “proinflammatory cytokine secretion-inhibiting activity on the MG6 cells” value in test [2] is “showed proinflammatory cytokine secretion-inhibiting activity”.

Take “DYLQLMVYVVKTSIKIPSSHNLMKGGSTKN (listed as Mus musculus) [MHP2]”: the “increase in the amount of IL-6 secretion by LPS” value in test [2] (MG6 cells, peptide 50 or 100 μg/ml, LPS 2 ng/ml, 24 hours, FIG. 1) is reported as “suppressed”. In test [2] (MG6 cells, peptide 50 or 100 μg/ml, LPS 2 ng/ml, 24 hours, FIG. 2), the “increase in the amount of TNFα secretion by LPS” value was “suppressed”. Besides, the mice that died result in test [4] was “no mouse”.
